Results as given in paper PMC9146984, “A Novel Proline-Rich Cathelicidin from the Alpaca Vicugna pacos with Potency to Combat Antibiotic-Resistant Bacteria: Mechanism of Action and the Functional Role of the C-Terminal Region” (Membranes, 2022).
Converted amounts (≈) assume the structure as drawn. Like-named read-outs stand apart in the source and are kept apart here. Where a SMILES comes first, the peptide text is derived from it.

Tests used:
[1] = test system: BW25113ΔsbmA with plasmid-borne wild-type SbmA; format: cell-based, Escherichia coli; settings: promoter J23119, pUC vector
Method: (§1) The reduction of resazurin to resorufin was measured.
(§2) A plasmid vector for the expression of sfGFP under the strong constitutive artificial promoter J23119 [33] was kindly provided by M.N. Baranova (Figure S2A). This plasmid was used for the preparation of the complementation plasmids overexpressing two SbmA variants in the SbmA-deficient E. coli strain. The plasmids were obtained by ligase-independent cloning procedure. Briefly, DNA parts were produced by PCR-amplification of the vector and target sbmA gene from wild-type E. coli MDR 1057 or VicBac[1–22]-resistant strain (Figure S2B). The DNA fragments purified by gel electrophoresis and having 22–23 bp overhangs were mixed with molar ratios of 2:1 (insert: linearized vector) and were subsequently transformed into chemically competent E. coli DH10B cells. Target plasmids were isolated from individual clones and then analyzed by DNA sequencing.

[2] = test system: BW25113ΔsbmA with plasmid-borne mutant SbmA bearing the tetrapeptide deletion; format: cell-based, Escherichia coli; settings: promoter J23119, pUC vector
Method: as §1, §2

[3] = test system: BW25113ΔsbmA expressing the control protein sfGFP; format: cell-based, Escherichia coli; settings: same promoter J23119
Method: as §1, §2

[4] = test system: human embryonic kidney cells (HEK293T); assay: Cytotoxicity (MTT assay); format: cell-based
Method: Hemolytic activity of the peptides was tested against the fresh suspension of human red blood cells (hRBC) using the hemoglobin release assay as described previously. Two experiments were performed with the hRBC from blood samples of independent donors. The quantitative data were represented as average means with standard deviations. The colorimetric 3-(4,5-dimethylthiazol-2-yl)-2,5-diphenyltetrazolium bromide (MTT) dye reduction assay was used to determine the cytotoxicity of the peptides against transformed human embryonic kidney cells (HEK293T). 10^4 cells per well in Dulbecco’s modified Eagle’s medium (DMEM/F12) supplemented with 10% fetal bovine serum (FBS; Invitrogen, Waltham, MA, USA) were placed into 96-well plates and then cultured in the CO2-incubator (5% CO2, 37 °C). After the media were removed, the peptides were dissolved in 100 µL of the same medium and added to cell cultures at different final concentrations. 20 h later, 20 μL of MTT (5 mg/mL; Sigma, St. Louis, MO, USA) was added to each well, and the plates were incubated for 4 h at 37 °C. Then, the media were discarded and a 100 µL dimethyl sulfoxide-isopropanol mixture at a ratio of 1:1 (v/v) was added to each well to dissolve the crystallized formazan. The absorbance at 570 nm was measured by a microplate reader AF2200 (Eppendorf, Hamburg, Germany). The optical density in the wells containing cells cultured without the peptides was assumed to represent 100% cell viability. Two independent experiments were performed for each peptide.

E. coli MDR CI 1057 = settings: Mueller-Hinton broth supplemented with 0.9% NaCl
Method: (§3) Bacterial test cultures were grown in the Mueller-Hinton broth (MH; Sigma, St. Louis, MO, USA) at 37 °C to mid-log phase and then diluted with the 2× MH medium supplemented with 1.8% NaCl or without salt so that to reach a final cell concentration of 10^6 CFU/mL. 50 µL of the obtained bacterial suspension were added to aliquots of 50 µL of the peptide solutions serially diluted with sterilized 0.1% bovine serum albumin (BSA) in 96-well flat-bottom polystyrene microplates (Eppendorf #0030730011, Hamburg, Germany). […] To verify MIC values, the respiratory activity of the bacteria was determined. Briefly, 20 µL of 0.1 mg/mL resazurin (a redox indicator; Sigma, St. Louis, MO, USA) was added to the wells after 24 h of incubation, and the plate was incubated for an additional two hours. The reduction of resazurin to resorufin was measured. […] The results were expressed as the median values determined based on at least three independent experiments performed in triplicate.
(§4) Resistance induction experiments were performed using the previously described method. Briefly, on day one, the overnight culture of wild-type bacteria was diluted with the 2× MH broth supplemented with 1.8% NaCl to reach a final cell concentration of 10^6 CFU/mL. 50 µL of the obtained bacterial suspension were added to aliquots of 50 µL of the peptide solutions serially diluted with the sterilized 0.1% BSA in 96-well flat-bottom polystyrene microplates. After incubation for 20 ± 2 h at 37 °C and 950 rpm, MICs were determined as described above. For each subsequent daily transfer, 2–4 μL of the inoculum taken from the first well containing a sub-inhibitory drug concentration were diluted with 2 mL of the fresh 2× MH broth supplemented with 1.8% NaCl. […] 14 repeated passages in the presence of antimicrobial agents were made for each bacterial strain during the experiment. Bacteria that grew at the highest concentration of AMPs on the final day were passaged a further 3 times on drug-free agar plates before determining the final MIC value.

[5] = test system: VicBac[1–22]-resistant E. coli MDR 1057 strain; settings: Mueller-Hinton broth supplemented with 0.9% NaCl; strain selected 14 days with VicBac[1-22]; cross-resistance
Method: as §3, §4

E. coli BW25113 ΔsbmA = format: cell-based, Escherichia coli; settings: Mueller–Hinton broth, 24 h, 37 °C, median
Method: as §1

E. coli BW25113 = format: cell-based, Escherichia coli; settings: BW25113, 24 h
Method: as §1

E. coli BW25113 ΔompF = format: cell-based, Escherichia coli; settings: Mueller–Hinton broth, 24 h, 37 °C, median
Method: as §1

E. coli BW25113 ΔmdtM = format: cell-based, Escherichia coli; settings: Mueller–Hinton broth, 24 h, 37 °C, median
Method: as §1

E. coli MDR 1057 = settings: selection by VicBac[1–22], stable after three passages without peptide
Method: Resistance induction experiments were performed using the previously described method. Briefly, on day one, the overnight culture of wild-type bacteria was diluted with the 2× MH broth supplemented with 1.8% NaCl to reach a final cell concentration of 10^6 CFU/mL. 50 µL of the obtained bacterial suspension were added to aliquots of 50 µL of the peptide solutions serially diluted with the sterilized 0.1% BSA in 96-well flat-bottom polystyrene microplates. After incubation for 20 ± 2 h at 37 °C and 950 rpm, MICs were determined as described above. For each subsequent daily transfer, 2–4 μL of the inoculum taken from the first well containing a sub-inhibitory drug concentration were diluted with 2 mL of the fresh 2× MH broth supplemented with 1.8% NaCl. […] Bacteria that grew at the highest concentration of AMPs on the final day were passaged a further 3 times on drug-free agar plates before determining the final MIC value.

For CC[C@H](C)[C@H](NC(=O)[C@H](CCCNC(=N)N)NC(=O)[C@@H]1CCCN1C(=O)[C@@H]1CCCN1C(=O)[C@@H](NC(=O)[C@H](CCCNC(=N)N)NC(=O)[C@@H]1CCCN1C(=O)[C@H](CCCNC(=N)N)NC(=O)[C@@H]1CCCN1C(=O)[C@@H](NC(=O)[C@H](CCCNC(=N)N)NC(=O)[C@@H]1CCCN1C(=O)[C@H](CCCNC(=N)N)NC(=O)[C@@H]1CCCN1C(=O)[C@H](CC(C)C)NC(=O)[C@H](CCCNC(=N)N)NC(=O)[C@@H]1CCCN1C(=O)[C@H](CCCNC(=N)N)NC(=O)[C@H](CCCNC(=N)N)NC(=O)[C@@H](NC(=O)[C@H](CCCNC(=N)N)NC(=O)[C@@H](N)CCCNC(=N)N)[C@@H](C)CC)C(C)C)[C@@H](C)CC)C(=O)O [VicBac[1-22]] (H-RRIRRPRLPRPRVPRPRIPPRI-OH), the “MIC, BW25113ΔsbmA with plasmid-borne wild-type SbmA” value [1] was 1 µM, the “MIC, BW25113ΔsbmA with plasmid-borne mutant SbmA (tetrapeptide deletion)” value [2] was 8 µM and the “MIC, control strain BW25113ΔsbmA expressing sfGFP” value [3] was 8 µM (≈ 22.5 µg/mL). For the same compound, the “moderate cytotoxic activity against human HEK293T cells” value [4] was “not”, the “Minimum inhibitory concentration E.coli MDR 1057 14 days w/o AMP” value (E. coli MDR CI 1057; after 14 passages without antimicrobial agents) was 1 µM (≈ 2.81 µg/mL) and the “Minimum inhibitory concentration E.coli MDR 1057 0 days” value (E. coli MDR CI 1057; before passages) was 1 µM (≈ 2.81 µg/mL). The “Minimum inhibitory concentration E.coli MDR 1057 14 days with VicBac [1-22]” value [5] was > 128 µM, the “Minimum inhibitory concentration, E. coli strain ΔsbmA” value (E. coli BW25113 ΔsbmA; 0.9% NaCl: +) was 16 µM (≈ 45 µg/mL) and the “Minimum inhibitory concentration, E. coli strain ΔsbmA” value (E. coli BW25113 ΔsbmA; 0.9% NaCl: −) was 4 µM (≈ 11.2 µg/mL). The “Minimum inhibitory concentration, E. coli strain BW25113” value (E. coli BW25113) was 2 µM (≈ 5.62 µg/mL), the “Minimum inhibitory concentration, E. coli strain ΔompF” value (E. coli BW25113 ΔompF; 0.9% NaCl: +) was 8 µM (≈ 22.5 µg/mL) and the “Minimum inhibitory concentration, E. coli strain ΔompF” value (E. coli BW25113 ΔompF; 0.9% NaCl: −) was 2 µM (≈ 5.62 µg/mL). For the same compound, the “Minimum inhibitory concentration, E. coli strain ΔmdtM” value (E. coli BW25113 ΔmdtM; 0.9% NaCl: +) was 2 µM (≈ 5.62 µg/mL), the “Minimum inhibitory concentration, E. coli strain ΔmdtM” value (E. coli BW25113 ΔmdtM; 0.9% NaCl: −) was 4 µM (≈ 11.2 µg/mL) and the “MIC value after 10 passages subjected to selection” value (E. coli MDR 1057) was > 128 µM.
